Test results as given in US20260355196A1, “INHIBITORS AND DEGRADERS OF PIP4K PROTEIN” (Larkspur Biosciences, Inc., priority 2023, published 2026).

target: T1, PIP4K2C (Homo sapiens, UniProt Q8TBX8); assay: HiBiT PIP4K2C degradation assay in MOLT-4 cells (endogenous PIP4K2C C-terminally tagged with HiBiT); type: cell-based; set-up: untagged in primary human PBMCs and monocyte-derived dendritic cells; conditions: 6 hours of incubation time, rather than 24 hours; MOLT-4, top concentration 10 micromolar; read-out: HiBIT-degradation MOLT4 PIP4k2C DC50 (6 hours, marked *)
T1 sequence (Q8TBX8 1-421): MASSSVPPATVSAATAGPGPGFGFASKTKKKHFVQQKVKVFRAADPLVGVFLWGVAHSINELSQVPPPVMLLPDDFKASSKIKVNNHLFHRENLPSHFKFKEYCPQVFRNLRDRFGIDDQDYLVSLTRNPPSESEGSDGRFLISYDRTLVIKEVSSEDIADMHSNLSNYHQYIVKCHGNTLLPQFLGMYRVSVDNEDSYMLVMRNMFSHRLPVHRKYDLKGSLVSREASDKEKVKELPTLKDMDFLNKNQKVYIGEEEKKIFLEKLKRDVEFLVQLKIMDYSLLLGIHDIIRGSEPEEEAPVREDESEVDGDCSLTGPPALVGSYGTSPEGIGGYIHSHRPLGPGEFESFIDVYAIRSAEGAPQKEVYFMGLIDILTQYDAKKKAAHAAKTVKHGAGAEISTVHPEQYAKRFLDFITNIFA
In short: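 MOLT-4 cells with endogenous PIP4K2C C-terminally HiBiT-tagged by CRISPR were treated with a 10-point, 3-fold dilution series from 10 micromolar, in duplicate, for 24 h or 6 h at 37 C. Remaining tagged protein read by HiBiT lytic luminescence; DC50 from Hill-equation fit.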

| Compound | DC50 [µM] |
| --- | --- |
| O=C1CCC(Nc2ccc(N3CCN([C@H]4CC[C@H](C(=O)N[C@H]5CC[C@H](Nc6ncc(F)c(-c7cccc(-c8ccc[nH]c8=O)c7)n6)CC5)CC4)CC3)c(F)c2)C(=O)N1 (stereo partly drawn) [Compound 450, trans-4-(4-(4-((2,6-dioxopiperidin-3-yl)amino)-2-fluorophenyl)piperazin-1-yl)-N-(trans-4-((5-fluoro-4-(3-(2-oxo-1,2-dihydropyridin-3-yl)phenyl)pyrimidin-2-yl)amino)cyclohexyl)cyclohexane-1-carboxamide] | < 0.5 |
| O=C1CCC(Nc2ccc(N3CCC(N4CCC(NC(=O)[C@H]5CC[C@H](Nc6ncc(F)c(-c7cccc(-c8ccc[nH]c8=O)c7)n6)CC5)CC4)C(F)(F)C3)c(F)c2)C(=O)N1 (stereo partly drawn) [Compound 451, trans-N-(1′-(4-((2,6-dioxopiperidin-3-yl)amino)-2-fluorophenyl)-3′,3′-difluoro-[1,4′-bipiperidin]-4-yl)-4-((5-fluoro-4-(3-(2-oxo-1,2-dihydropyridin-3-yl)phenyl)pyrimidin-2-yl)amino)cyclohexane-1-carboxamide] | < 0.5 |
| O=C1CCC(Nc2ccc(N3CCC(N4CCC(NC(=O)[C@H]5CC[C@H](Nc6ncc(F)c(-c7cccc(-n8ccccc8=O)c7)n6)CC5)CC4)C(F)C3)c(F)c2)C(=O)N1 (stereo partly drawn) [Compound 452, trans-N-(1′-(4-((2,6-dioxopiperidin-3-yl)amino)-2-fluorophenyl)-3′-fluoro-[1,4′-bipiperidin]-4-yl)-4-((5-fluoro-4-(3-(2-oxopyridin-1(2H)-yl)phenyl)pyrimidin-2-yl)amino)cyclohexane-1-carboxamide] | < 0.5 |
| O=C1CCC(Nc2ccc(N3CCC(N4CCC(NC(=O)[C@H]5CC[C@H](Nc6ncc(F)c(-c7cccc(-c8ccc[nH]c8=O)c7)n6)CC5)CC4)C(F)C3)c(F)c2)C(=O)N1 (stereo partly drawn) [Compound 453, trans-N-(1′-(4-((2,6-dioxopiperidin-3-yl)amino)-2-fluorophenyl)-3′-fluoro-[1,4′-bipiperidin]-4-yl)-4-((5-fluoro-4-(3-(2-oxo-1,2-dihydropyridin-3-yl)phenyl)pyrimidin-2-yl)amino)cyclohexane-1-carboxamide] | < 0.5 |
| O=C1CC[C@@H](Nc2ccc(C3CCN([C@H]4CC[C@H](C(=O)N[C@H]5CC[C@H](Nc6ncc(F)c(-c7cccc(-c8ccc[nH]c8=O)c7)n6)CC5)CC4)CC3)c(F)c2)C(=O)N1 [Compound 454, trans-4-(4-(4-(((R)-2,6-dioxopiperidin-3-yl)amino)-2-fluorophenyl)piperidin-1-yl)-N-(trans-4-((5-fluoro-4-(3-(2-oxo-1,2-dihydropyridin-3-yl)phenyl)pyrimidin-2-yl)amino)cyclohexyl)cyclohexane-1-carboxamide] | < 0.5 |
| O=C1CC[C@H](Nc2ccc(C3CCN([C@H]4CC[C@H](C(=O)N[C@H]5CC[C@H](Nc6ncc(F)c(-c7cccc(-n8ccccc8=O)c7)n6)CC5)CC4)CC3)c(F)c2)C(=O)N1 [Compound 457, (1S,4R)-4-(4-(4-(((S)-2,6-dioxopiperidin-3-yl)amino)-2-fluorophenyl)piperidin-1-yl)-N-((1r,4R)-4-((5-fluoro-4-(3-(2-oxopyridin-1(2H)-yl)phenyl)pyrimidin-2-yl)amino)cyclohexyl)cyclohexane-1-carboxamide] | < 0.5 |
| O=C1CCC(Nc2ccc(N3CCN(CC4(O)CCN(C(=O)[C@H]5CC[C@H](Nc6ncc(F)c(-c7cccc(-c8ccccc8)c7)n6)CC5)CC4)CC3)c(F)c2)C(=O)N1 (stereo partly drawn) [Compound 463, trans-3-[3-fluoro-4-[4-[[1-[4-[[5-fluoro-4-(3-phenylphenyl)pyrimidin-2-yl]amino]cyclohexanecarbonyl]-4-hydroxy-4-piperidyl]methyl]piperazin-1-yl]anilino]piperidine-2,6-dione] | < 0.5 |
| O=C1CCC(Nc2ccc(C3CCN(CC4(O)CCN(C(=O)[C@H]5CC[C@H](Nc6ncc(F)c(-c7cccc(-c8ccccc8)c7)n6)CC5)CC4)CC3)c(F)c2)C(=O)N1 (stereo partly drawn) [Compound 464, 3-((4-(1-((1-(trans-4-((4-([1,1′-biphenyl]-3-yl)-5-fluoropyrimidin-2-yl)amino)cyclohexane-1-carbonyl)-4-hydroxypiperidin-4-yl)methyl)piperidin-4-yl)-3-fluorophenyl)amino)piperidine-2,6-dione] | < 0.5 |
| O=C1CCC(Nc2ccc(C3CCN(CC4CCN(C(=O)N5CCC(Nc6ncc(F)c(-c7cccc(-n8ccccc8=O)c7)n6)CC5)CC4)CC3)c(F)c2)C(=O)N1 (stereo not drawn) [Compound 465, 3-((3-fluoro-4-(1-((1-(4-((5-fluoro-4-(3-(2-oxopyridin-1 (2H)-yl)phenyl)pyrimidin-2-yl)amino)piperidine-1-carbonyl)piperidin-4-yl)methyl)piperidin-4-yl)phenyl)amino)piperidine-2,6-dione] | < 0.5 |
| O=C1CCC(Nc2ccc(C3CCN(CC4CCN(C(=O)[C@H]5CC[C@H](Nc6ncc(F)c(-c7cccc(-c8ccccc8)c7)n6)CC5)CC4)CC3)c(F)c2)C(=O)N1 (stereo partly drawn) [Compound 466, 3-((4-(1-((1-(trans-4-((4-([1,1′-biphenyl]-3-yl)-5-fluoropyrimidin-2-yl)amino)cyclohexane-1-carbonyl)piperidin-4-yl)methyl)piperidin-4-yl)-3-fluorophenyl)amino)piperidine-2,6-dione] | < 0.5 |
| Cn1nc(C2CCC(=O)NC2=O)c2ccc(C3CCN(CC4CCN(C(=O)O[C@H]5CC[C@H](Nc6ncc(F)c(-c7cccc(-n8ccccc8=O)c7)n6)CC5)CC4)CC3)cc21 (stereo partly drawn) [Compound 467, trans-4-((5-fluoro-4-(3-(2-oxopyridin-1 (2H)-yl)phenyl)pyrimidin-2-yl)amino)cyclohexyl 4-((4-(3-(2,6-dioxopiperidin-3-yl)-1-methyl-1H-indazol-6-yl)piperidin-1-yl)methyl)piperidine-1-carboxylate] | < 0.5 |
| O=C1CCC(Nc2ccc(C3CCN(CC4CCN(C(=O)[C@H]5CC[C@H](Nc6ncc(F)c(-c7cccc(C(=O)N8CC[C@H](O)C8)c7)n6)CC5)CC4)CC3)c(F)c2)C(=O)N1 (stereo partly drawn) [Compound 468, trans-3-((3-fluoro-4-(1-((1-(4-((5-fluoro-4-(3-((S)-3-hydroxypyrrolidine-1-carbonyl)phenyl)pyrimidin-2-yl)amino)cyclohexane-1-carbonyl)piperidin-4-yl)methyl)piperidin-4-yl)phenyl)amino)piperidine-2,6-dione] | < 0.5 |
| O=C1CCC(Nc2ccc(C3CCN(CCC4CCN(C(=O)O[C@H]5CC[C@H](Nc6ncc(F)c(-c7cccc(-c8ccccc8)c7)n6)CC5)CC4)CC3)c(F)c2)C(=O)N1 (stereo partly drawn) [Compound 469, trans-4-((4-([1,1′-biphenyl]-3-yl)-5-fluoropyrimidin-2-yl)amino)cyclohexyl 4-(2-(4-(4-((2,6-dioxopiperidin-3-yl)amino)-2-fluorophenyl)piperidin-1-yl)ethyl)piperidine-1-carboxylate] | < 0.5 |
| Cc1ccn(-c2cccc(-c3nc(N[C@H]4CC[C@H](C(=O)N5CCC(O)(CN6CCN(c7ccc(NC8CCC(=O)NC8=O)cc7F)CC6)CC5)CC4)ncc3F)c2)c(=O)c1 (stereo partly drawn) [Compound 470, trans-3-((3-fluoro-4-(4-((1-(4-((5-fluoro-4-(3-(4-methyl-2-oxopyridin-1 (2H)-yl)phenyl)pyrimidin-2-yl)amino)cyclohexane-1-carbonyl)-4-hydroxypiperidin-4-yl)methyl)piperazin-1-yl)phenyl)amino)piperidine-2,6-dione] | < 0.5 |
| Cc1ccn(-c2cccc(-c3nc(N[C@H]4CC[C@H](C(=O)N5CCC(CN6CCN(c7ccc(NC8CCC(=O)NC8=O)cc7F)CC6)CC5)CC4)ncc3F)c2)c(=O)c1 (stereo partly drawn) [Compound 471, trans-3-((3-fluoro-4-(4-((1-(4-((5-fluoro-4-(3-(4-methyl-2-oxopyridin-1 (2H)-yl)phenyl)pyrimidin-2-yl)amino)cyclohexane-1-carbonyl)piperidin-4-yl)methyl)piperazin-1-yl)phenyl)amino)piperidine-2,6-dione] | < 0.5 |
| Cc1ccn(-c2cccc(-c3nc(N[C@H]4CC[C@H](C(=O)N5CCC(O)(CN6CCC(c7ccc(NC8CCC(=O)NC8=O)cc7F)CC6)CC5)CC4)ncc3F)c2)c(=O)c1 (stereo partly drawn) [Compound 472, trans-3-[3-fluoro-4-[1-[[1-[4-[[5-fluoro-4-[3-(4-methyl-2-oxo-1-pyridyl)phenyl]pyrimidin-2-yl]amino]cyclohexanecarbonyl]-4-hydroxy-4-piperidyl]methyl]-4-piperidyl]anilino]piperidine-2,6-dione] | < 0.5 |
| Cc1ccn(-c2cccc(-c3nc(N[C@H]4CC[C@H](C(=O)N5CCC(CN6CCC(c7ccc(NC8CCC(=O)NC8=O)cc7F)CC6)CC5)CC4)ncc3F)c2)c(=O)c1 (stereo partly drawn) [Compound 473, trans-3-((3-fluoro-4-(1-((1-(4-((5-fluoro-4-(3-(4-methyl-2-oxopyridin-1 (2H)-yl)phenyl)pyrimidin-2-yl)amino)cyclohexane-1-carbonyl)piperidin-4-yl)methyl)piperidin-4-yl)phenyl)amino)piperidine-2,6-dione] | < 0.5 |
| O=C1CCC(Nc2ccc(C3CCN(C4CCN(C(=O)O[C@H]5CC[C@H](Nc6ncc(F)c(-c7cccc(-n8ccccc8=O)c7)n6)CC5)CC4)CC3)c(F)c2)C(=O)N1 (stereo partly drawn) [Compound 474, trans-4-((5-fluoro-4-(3-(2-oxopyridin-1 (2H)-yl)phenyl)pyrimidin-2-yl)amino)cyclohexyl 4-(4-((2,6-dioxopiperidin-3-yl)amino)-2-fluorophenyl)-[1,4′-bipiperidine]-1′-carboxylate] | < 0.5 |
